Reference: PubChem BioAssay AID2060621 (Molecular Pharmacology Branch, DTP, NCI, 2025)

Test system: 324938-238-R-J1-PDC complex spheroids viability
Test: Anticancer human tumor 324938-238-R-J1-PDC patient-derived bladder carcinoma cell line growth inhibition [CLK]
Conditions: for IC50: curve of first compound; for viability, T/C: stronger effect = lower value
From the text: A high-throughput screen of multi-cell type tumor spheroids was designed to identify active combinations of […] and targeted small molecules. Complex spheroids include a stromal component modeled by human endothelial cells (HUVEC) and fibroblasts modeled by human mesenchymal stem cells (MSCs). The concentration ranges selected for each drug and investigational agent were based upon clinically achievable concentrations if the clinical Cmax of the agent was known.
Compounds. The drugs and investigational agents: cirtuvivint (SM08502; NSC835563), CC-671 (NSC850746), vemurafenib (NSC761431), tapotoclax (NSC804041), sotorasib (NSC818433), adagrasib (NSC831453), MRTX-1133 (NSC836407), BAY2416964 (NSC825713), copanlisib (NSC816437), inavolisib (NSC800729), abemaciclib (NSC768073), osimertinib (NSC779217), entinostat (NSC756642), eltanexor (KPT-8602, NSC794443), venetoclax (NSC766270), ceralasertib (NSC777638), bortezomib (NSC756655), olaparib (NSC753686), talazoparib (NSC767125), alisertib (NSC759677), peposertib (NSC802822), gemcitabine (NSC613327), 5-fluorouracil (NSC19893), SN-38 (NSC673596), oxaliplatin (NSC266046), paclitaxel (NSC125973), and doxorubicin (NSC123127), were obtained from the National Cancer Institute (NCI) Developmental Therapeutics Program Chemical Repository. The FDA-approved anticancer drug set is available from the Developmental Therapeutics Program at https://dtp.cancer.gov/organization/dscb/obtaining/available plates.htm. […] The stock solutions were prepared in dimethyl sulfoxide (DMSO, Sigma-Aldrich, St. Louis, MO, cat. D2650), except for the platinum complexes which were prepared in saline (Quality Biological, Gaithersburg, MD, cat. 114-055-101), at 800-fold the tested concentration and stored at -70 degrees C prior to their use. All drugs and investigational agents were tested over a range starting from a high concentration at or near the clinical Cmax and decreasing in half-log increments. If the clinical Cmax for an agent had not been determined, the highest concentration tested was 10 microM.
Cell Culture. All cells were maintained in an incubator at 37 degrees C and 5% CO2 with 95% humidity. The PDC lines were cultured according to standard operating procedures established by the NCI PDMR. Briefly, all PDCs were thawed and cultured in Matrigel-coated flasks prepared with a working solution of 1X Ham's F-12 nutrient mix, without supplementation (Invitrogen, Waltham, MA, cat. 11765054), 100 U/mL penicillin-streptomycin (Invitrogen, cat. 15140122), and 2.5% Matrigel (Corning Inc., Corning, NY, cat. 354248) for the first three passages. The 947758-054-R-J2-PDC line was cultured in 6B/Colon 1A media, which includes advanced DMEM/F-12 (Thermo Fisher Scientific, cat. 12634028), 10 mM HEPES (Thermo Fisher Scientific, cat. 15630080), 1X GlutaMAX supplement (Thermo Fisher Scientific, cat. 35050061), 0.1 mg/mL primocin (InvivoGen, cat. ant-pm-2), 10% defined fetal bovine serum, heat inactivated (HyClone Laboratories Inc., cat. SH30070.03HI), 1.25 mM N-Acetyl-L-cysteine (Sigma-Aldrich, cat. A9165), 10 mM nicotinamide (Sigma-Aldrich, cat. N0636), 1X B-27 supplement (Thermo Fisher Scientific, cat. 17504044), 1X N-2 supplement (Thermo Fisher Scientific, cat. 17502048), and 10 microM Y-27632 dihydrochloride (Tocris Bioscience, cat. 1254). The 876862-298-R-J1-PDC was cultured in 6E media, which includes all 6B/Colon 1A media components plus 50% L-WRN conditioned media (ATCC, cat. CRL-3276), 50 ng/mL recombinant human EGF recombinant protein (hEGF; Thermo Fisher Scientific, cat. PHG0311), 10 ng/mL recombinant human fibroblast growth factor 10 (hGFG-10; PeproTech, cat. 100-26), 1 ng/mL recombinant human fibroblast growth factor 2 (hFGF-2; PeproTech, cat. 100-18B), and 1 µM prostaglandin E2 (PGE2; Tocris, cat. 2296). The 227483-062-R1-J1-PDC line was cultured in Panc media, containing all 6E components except hFGF-2, with the addition of 500 nM SB-431542 (Selleckchem, cat. S1067) and 10 nM gastrin (Tocris, cat. 3006). […]

[1] = second compound 0.0316 µM, first compound 0.0316 µM
[2] = second compound 0.0316 µM, first compound 0.1 µM
[3] = second compound 0.0316 µM, first compound 0.316 µM
[4] = second compound 0.0316 µM, first compound 1 µM
[5] = second compound 0.0316 µM, first compound 3.16 µM
[6] = second compound 0.0316 µM, first compound 10 µM
[7] = second compound 0.1 µM, first compound 0.0316 µM
[8] = second compound 0.1 µM, first compound 0.1 µM
[9] = second compound 0.1 µM, first compound 0.316 µM
[10] = second compound 0.1 µM, first compound 1 µM
[11] = second compound 0.1 µM, first compound 3.16 µM
[12] = second compound 0.1 µM, first compound 10 µM
[13] = second compound 0.316 µM, first compound 0.0316 µM
[14] = second compound 0.316 µM, first compound 0.1 µM
[15] = second compound 0.316 µM, first compound 0.316 µM
[16] = second compound 0.316 µM, first compound 1 µM
[17] = second compound 0.316 µM, first compound 3.16 µM
[18] = second compound 0.316 µM, first compound 10 µM
[19] = second compound 1 µM, first compound 0.0316 µM
[20] = second compound 1 µM, first compound 0.1 µM
[21] = second compound 1 µM, first compound 0.316 µM
[22] = second compound 1 µM, first compound 1 µM
[23] = second compound 1 µM, first compound 3.16 µM
[24] = second compound 1 µM, first compound 10 µM
[25] = second compound 3.16 µM, first compound 0.0316 µM
[26] = second compound 3.16 µM, first compound 0.1 µM
[27] = second compound 3.16 µM, first compound 0.316 µM
[28] = second compound 3.16 µM, first compound 1 µM
[29] = second compound 3.16 µM, first compound 3.16 µM
[30] = second compound 3.16 µM, first compound 10 µM
[31] = second compound 10 µM, first compound 0.0316 µM
[32] = second compound 10 µM, first compound 0.1 µM
[33] = second compound 10 µM, first compound 0.316 µM
[34] = second compound 10 µM, first compound 1 µM
[35] = second compound 10 µM, first compound 3.16 µM
[36] = second compound 10 µM, first compound 10 µM
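Note: viability read after seven days of drug exposure.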
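Throughout, for viability, T/C: 100% = DMSO vehicle control wells.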

## CCCS(=O)(=O)Nc1ccc(F)c(C(=O)c2c[nH]c3ncc(-c4ccc(Cl)cc4)cc23)c1F + CN1CCN(c2cc(C(=O)Nc3cc4cc(-c5cnn(C)c5)ccc4cn3)ccn2)CC1
Second compound 0.0316 µM
  IC50: > 10000 nM
Second compound 0.1 µM
  IC50: 8330 nM
Second compound 0.316 µM
  IC50: < 31.6 nM
Second compound 1 µM
  IC50: < 31.6 nM
Second compound 3.16 µM
  IC50: < 31.6 nM
Second compound 10 µM
  IC50: < 31.6 nM
[1]
  viability, T/C: 76.9%
[2]
  viability, T/C: 96%
[3]
  viability, T/C: 92.7%
[4]
  viability, T/C: 114%
[5]
  viability, T/C: 102%
[6]
  viability, T/C: 58.3%
[7]
  viability, T/C: 61.2%
[8]
  viability, T/C: 61.3%
[9]
  viability, T/C: 52%
[10]
  viability, T/C: 65.7%
[11]
  viability, T/C: 60.1%
[12]
  viability, T/C: 39.1%
[13]
  viability, T/C: 24.1%
[14]
  viability, T/C: 27.6%
[15]
  viability, T/C: 24.5%
[16]
  viability, T/C: 27.2%
[17]
  viability, T/C: 26%
[18]
  viability, T/C: 24.8%
[19]
  viability, T/C: 1.58%
[20]
  viability, T/C: 1.65%
[21]
  viability, T/C: 1.22%
[22]
  viability, T/C: 0.96%
[23]
  viability, T/C: 1.9%
[24]
  viability, T/C: 0.6%
[25]
  viability, T/C: 0.52%
[26]
  viability, T/C: 0.23%
[27]
  viability, T/C: 0.3%
[28]
  viability, T/C: 0.13%
[29]
  viability, T/C: 0.14%
[30]
  viability, T/C: 0.21%
[31]
  viability, T/C: 0.56%
[32]
  viability, T/C: 0.19%
[33]
  viability, T/C: 0.19%
[34]
  viability, T/C: 0.31%
[35]
  viability, T/C: 0.18%
[36]
  viability, T/C: 0.62%

## COC1C=CCC(C)C(C)S(=O)(=O)NC(=O)c2ccc3c(c2)N(CC2CCC21)CC1(CCCc2cc(Cl)ccc21)CO3 (centres undefined) + CN1CCN(c2cc(C(=O)Nc3cc4cc(-c5cnn(C)c5)ccc4cn3)ccn2)CC1
Second compound 0.0316 µM
  IC50: 440 nM
Second compound 0.1 µM
  IC50: 292 nM
Second compound 0.316 µM
  IC50: < 31.6 nM
Second compound 1 µM
  IC50: < 31.6 nM
Second compound 3.16 µM
  IC50: < 31.6 nM
Second compound 10 µM
  IC50: < 31.6 nM
[1]
  viability, T/C: 86.6%
[2]
  viability, T/C: 87.2%
[3]
  viability, T/C: 57.6%
[4]
  viability, T/C: 27.6%
[5]
  viability, T/C: 17.9%
[6]
  viability, T/C: 11.9%
[7]
  viability, T/C: 57.9%
[8]
  viability, T/C: 52.9%
[9]
  viability, T/C: 50.4%
[10]
  viability, T/C: 25.9%
[11]
  viability, T/C: 18.4%
[12]
  viability, T/C: 13.9%
[13]
  viability, T/C: 26.2%
[14]
  viability, T/C: 26%
[15]
  viability, T/C: 23.1%
[16]
  viability, T/C: 13.1%
[17]
  viability, T/C: 10.5%
[18]
  viability, T/C: 8.58%
[19]
  viability, T/C: 1.66%
[20]
  viability, T/C: 1.72%
[21]
  viability, T/C: 1.35%
[22]
  viability, T/C: 0.96%
[23]
  viability, T/C: 0.86%
[24]
  viability, T/C: 0.63%
[25]
  viability, T/C: 0.44%
[26]
  viability, T/C: 0.47%
[27]
  viability, T/C: 0.28%
[28]
  viability, T/C: 0.21%
[29]
  viability, T/C: 0.22%
[30]
  viability, T/C: 0.36%
[31]
  viability, T/C: 0.19%
[32]
  viability, T/C: 0.17%
[33]
  viability, T/C: 0.21%
[34]
  viability, T/C: 0.19%
[35]
  viability, T/C: 0.25%
[36]
  viability, T/C: 0.25%
